Assay results reported in publication PMC8250858, “A Systematic Study of the Stability, Safety, and Efficacy of the de novo Designed Antimicrobial Peptide PepD2 and Its Modified Derivatives Against Acinetobacter baumannii” (Frontiers in Microbiology, 2021).
In brackets after ≈: the same amount, converted by molar mass. Like-named read-outs stand apart in the source and are kept apart here. Non-standard residues stand in square brackets, D forms with d. Residues, ends and D or L forms follow the SMILES beside them. *: point of attachment. Stearoyl = CCCCCCCCCCCCCCCCCC(=O)*; Palmitoyl = CCCCCCCCCCCCCCCC(=O)*; Myristoyl = CCCCCCCCCCCCCC(=O)*; Octanoyl = CCCCCCCC(=O)*; Orn = NCCC[C@H](N)C(=O)O; Hexanoyl = CCCCCC(=O)*; Butyryl = CCCC(=O)*

What was measured:
HEK293 cells = format: cell-based, human
Protocol: Cell viability assays were performed by using the CellTiter 96® AQueous Non-Radioactive Cell Proliferation Assay (Promega, United States), in which 3-(4,5-dimethylthiazol-2-yl)-5-(3-carboxymethoxyphenyl)-2-(4-sulfophenyl)-2H-tetrazolium salt (MTS) can be reduced to purple-colored formazan by intact cells. […] The test peptide was dissolved in water and filtered through a 0.2-μm filter. The peptide concentration was quantitated by the UV280 to make a 5,120 μg/mL stock solution and then serially diluted in serum-free DMEM. On the second day, the medium was replaced with 100 μL of serum-free DMEM containing different peptide concentrations and incubated for 1 or 24 h. Serum-free DMEM without peptide was used as a negative control and medium containing 1% Triton X-100 was used as a positive control. One milligram of MTS powder was dissolved in 0.5 mL of Dulbecco’s phosphate-buffered saline (DPBS). The MTS solution was mixed with one-twentieth of a phenazine methosulfate (PMS) solution ([…]). To each well, 20 μL of the MTS/PMS solution was added. After 3 h, the absorbance was measured with an Infinite M1000 pro (Tecan Austria GmbH, Austria) at a wavelength of 490 nm. Cell viability was calculated using the following equation. Cellviability=[(A-Ap)/(An-Ap)]×100% A is the UV490 of the peptide-treated sample An is the UV490 of the sample without peptide (negative control) Ap is the UV490 of the Triton-treated sample (positive control)

A. baumannii ATCC 17978 = format: cell-based, Acinetobacter baumannii
Protocol: Following CLSI guideline M07-A11, single bacterial colonies of A. baumannii ATCC 17978 grown on Müller–Hinton agar (MHA) plates were picked and inoculated in 4 mL of Müller–Hinton broth (MHB) at 37°C and shaken at 180 rpm for 4∼6 h. The bacterial broth was diluted in the same medium to give a cell density of 1∼2 × 10^8 CFU/mL (OD600 = 0.38∼0.4 for A. baumannii) (Supplementary Figure 1; [Dillon et al., 2020]). Then, the broth was diluted 20-fold. Peptides were dissolved in water and filtered through a 0.2-μm filter to make a stock solution. The peptide concentration was quantified by the UV280. Then, the peptide solution was serially diluted in MHB to final peptide concentrations of 1, 2, 4, 8, 16, and 32 μg/mL. One hundred microliters of serially diluted peptide and 10 μL of bacterial culture were mixed in a 96-well polystyrene plate. Each well contained approximately 5 × 10^5 CFU/mL. The positive control was a mixture of 100 μL of MHB and 10 μL of the bacterial culture. The negative control was 110 μL of MHB. The plates were incubated at 37°C without shaking. […] The bacterium-peptide mixtures (the mixture without visible growth and the mixture containing a two-fold […] peptide concentration than the mixture without growth), positive control, and negative control (3 μL each) were spotted on an MHA plate and incubated at 37°C for 24 h. The MBC was determined as the lowest peptide concentration at which no colonies formed.
The MIC and MBC of our designed peptides against A. baumannii were obtained by using the broth microdilution method in the CLSI protocol. The bacterial cell number was carefully counted, and a final cell density of 5 × 10^5 CFU/mL in each well was used in the MIC test (Supplementary Figure 1). The minimal peptide concentration at which no bacterial growth was observed was taken as the MIC value. The culture after peptide treatment was spotted on an MHA plate, and the peptide concentration that could kill all the bacteria was defined as the MBC. The MIC/MBC and hemolytic activity of these peptides are shown and compared in Figure 1.

in vitro = in vitro ADME, rat; details: for half-life at 0.6 mg/mL: rat plasma, room temperature
Protocol: EDTA-treated rat whole blood was centrifuged at 4°C and 840 × g for 5 min, and then the blood cells were removed ([[…] et al., 2019]). The supernatant was placed in an Eppendorf tube and centrifuged at 4°C and 13,000 rpm for 10 min to remove lipids (white precipitate). The supernatant was filtered through a 0.2-μm filter. The peptide was dissolved in water and filtered through a 0.2-μm filter. The peptide concentration was quantified by the UV280 to make a 1 mg/mL stock solution. […] At the indicated time, the peptide was analyzed by HPLC with a C18 column using a linear gradient of 20-65% B over 15 min. Solution A: 5% acetonitrile plus 0.1% trifluoroacetic acid in water; solution B: 0.1% trifluoroacetic acid in acetonitrile.

Hemolytic assay = format: cell-based, rat
Protocol: The blood cells were washed three times with PBS, where the volume of PBS was the same as that of the original blood, by gently turning the centrifuge tube upside down. After washing, ten microliters of blood cells were diluted 2,000-fold in PBS to count the cells. Finally, red blood cells were diluted to 5 × 10^8 cells/mL in PBS. Peptides were dissolved in water and filtered through a 0.2-μm filter to make a stock solution. The peptide concentration was quantitated by the UV280. The peptide solution was diluted in PBS to different concentrations (five times the tested concentrations). Twenty microliters of the peptide in PBS was mixed with 80 μL of red blood cell solution in a 96-well plate (V-bottom). The final peptide concentration was 16–256 μg/mL. In the positive control group, 20 μL of 5% Triton X-100 was added to the red blood cell solution for a final Triton X-100 concentration of 1%. For the negative control group, 20 μL of PBS solution was added. The 96-well plate was incubated at 37°C for 45 min. After centrifuging the 96-well plate at 1,500 × g for 5 min, 30 μL of the supernatant was mixed with 100 μL of deionized water in a 96-well plate (flat bottom). The concentration of heme in each well was measured by the UV405 using an Infinite M1000 pro (Tecan Austria GmbH, Austria). The hemolytic activity was calculated using the following formula. Hemolyticactivity=[(F-F0)/(Ft-F0)]×100% F is the UV405 of the peptide-treated sample F0 is the UV405 of the sample without peptide (negative control) Ft is the UV405 of the Triton-treated sample (positive control)

A. baumannii = tested on: A. baumannii; design: method as in Sato et al., 2018; details: ref Sato et al., 2018; cited from earlier work
A. baumannii 19606 = tested on: A. baumannii 19606; design: method as in Feng et al., 2013; details: ref Feng et al., 2013; cited from earlier work
[1] = rat red blood cells, 256 μg/mL peptide, 37°C 45 min, read-out: Hemolysis (%) at 256 μg/mL

Compound	MBC A. baumannii 17978 (A. baumannii ATCC 17978; ATCC 17978, 24 h)	hemolysis at 45 min, 256 μg/mL (Hemolytic assay; rat) [%]	further results
Ac-WKKLKKLLKKL-NH2 [pepD3]	8 µg/mL	–	HEK293 IC50 (HEK293 cells; 1 h): 49.5 µg/mL; HEK293 IC50 (HEK293 cells; 24 h): 68.1 µg/mL; half-life at 0.6 mg/mL (in vitro; rat, plasma): 1150 min; hemolysis at 45 min, 256 μg/mL (Hemolytic assay; [1]): 3.15%
colistin sulfate	–	–	MIC against A. baumannii (A. baumannii): 2 µg/mL
Ac-WRRLRRLLRRLRRL-NH2 [pepR2]	8 µg/mL	106	–
CCCCCCCCCCCCCCCCCC(=O)N[C@@H](Cc1c[nH]c2ccccc12)C(=O)N[C@@H](CCCCN)C(=O)N[C@@H](CCCCN)C(=O)N[C@@H](CC(C)C)C(=O)N[C@@H](CCCCN)C(=O)N[C@@H](CCCCN)C(=O)N[C@@H](CC(C)C)C(=O)N[C@@H](CC(C)C)C(=O)N[C@@H](CCCCN)C(=O)N[C@@H](CCCCN)C(=O)N[C@@H](CC(C)C)C(=O)N[C@@H](CCCCN)C(=O)N[C@@H](CCCCN)C(=O)N[C@@H](CC(C)C)C(N)=O [pepD2S] (Stearoyl-WKKLKKLLKKLKKL-NH2)	–	60.7	–
CCCC(=O)N[C@@H](Cc1c[nH]c2ccccc12)C(=O)N[C@@H](CCCCN)C(=O)N[C@@H](CCCCN)C(=O)N[C@@H](CC(C)C)C(=O)N[C@@H](CCCCN)C(=O)N[C@@H](CCCCN)C(=O)N[C@@H](CC(C)C)C(=O)N[C@@H](CC(C)C)C(=O)N[C@@H](CCCCN)C(=O)N[C@@H](CCCCN)C(=O)N[C@@H](CC(C)C)C(N)=O [pepD3B] (Butyryl-WKKLKKLLKKL-NH2)	8 µg/mL (≈ 5.35 µM)	7.89	–
CC(=O)N[C@@H](Cc1c[nH]c2ccccc12)C(=O)N[C@@H](CCCN)C(=O)N[C@@H](CCCN)C(=O)N[C@@H](CC(C)C)C(=O)N[C@@H](CCCN)C(=O)N[C@@H](CCCN)C(=O)N[C@@H](CC(C)C)C(=O)N[C@@H](CC(C)C)C(=O)N[C@@H](CCCN)C(=O)N[C@@H](CCCN)C(=O)N[C@@H](CC(C)C)C(=O)N[C@@H](CCCN)C(=O)N[C@@H](CCCN)C(=O)N[C@@H](CC(C)C)C(N)=O [pepO2, Ac-WOOLOOLLOOLOOL-NH2] (Ac-W[Orn][Orn]L[Orn][Orn]LL[Orn][Orn]L[Orn][Orn]L-NH2)	8 µg/mL (≈ 4.64 µM)	0.23	–
Ac-WKKVKKVVKKVKKV-NH2 [pepV2]	32 µg/mL	0.31	–
CCCCCCCCCCCCCC(=O)N[C@@H](Cc1c[nH]c2ccccc12)C(=O)N[C@@H](CCCCN)C(=O)N[C@@H](CCCCN)C(=O)N[C@@H](CC(C)C)C(=O)N[C@@H](CCCCN)C(=O)N[C@@H](CCCCN)C(=O)N[C@@H](CC(C)C)C(=O)N[C@@H](CC(C)C)C(=O)N[C@@H](CCCCN)C(=O)N[C@@H](CCCCN)C(=O)N[C@@H](CC(C)C)C(=O)N[C@@H](CCCCN)C(=O)N[C@@H](CCCCN)C(=O)N[C@@H](CC(C)C)C(N)=O [pepD2M] (Myristoyl-WKKLKKLLKKLKKL-NH2)	–	93.6	–
LL-37: natural human antimicrobial peptide	–	–	MIC against A. baumannii 19606 (A. baumannii 19606): 16 µg/mL
CCCCCCCCCCCCCCCC(=O)N[C@@H](Cc1c[nH]c2ccccc12)C(=O)N[C@@H](CCCCN)C(=O)N[C@@H](CCCCN)C(=O)N[C@@H](CC(C)C)C(=O)N[C@@H](CCCCN)C(=O)N[C@@H](CCCCN)C(=O)N[C@@H](CC(C)C)C(=O)N[C@@H](CC(C)C)C(=O)N[C@@H](CCCCN)C(=O)N[C@@H](CCCCN)C(=O)N[C@@H](CC(C)C)C(=O)N[C@@H](CCCCN)C(=O)N[C@@H](CCCCN)C(=O)N[C@@H](CC(C)C)C(N)=O [pepD2P] (Palmitoyl-WKKLKKLLKKLKKL-NH2)	–	83.5	–
CC(=O)N[C@@H](Cc1c[nH]c2ccccc12)C(=O)N[C@H](CCCCN)C(=O)N[C@H](CCCCN)C(=O)N[C@H](CC(C)C)C(=O)N[C@H](CCCCN)C(=O)N[C@H](CCCCN)C(=O)N[C@H](CC(C)C)C(=O)N[C@H](CC(C)C)C(=O)N[C@H](CCCCN)C(=O)N[C@H](CCCCN)C(=O)N[C@H](CC(C)C)C(=O)N[C@H](CCCCN)C(=O)N[C@H](CCCCN)C(=O)N[C@H](CC(C)C)C(N)=O [pepdD2, Ac-Wkklkkllkklkkl-NH2] (Ac-W[dK][dK][dL][dK][dK][dL][dL][dK][dK][dL][dK][dK][dL]-NH2)	8 µg/mL (≈ 4.36 µM)	–	HEK293 IC50 (HEK293 cells; 1 h): 40.2 µg/mL; HEK293 IC50 (HEK293 cells; 24 h): 20.6 µg/mL; Extension of peptide half-life in plasma (in vitro): more than 12 fold; remaining at 72 h, 0.6 mg/mL (in vitro; rat, plasma): ~90%; half-life at 0.6 mg/mL (in vitro; rat, plasma): 17400 min; hemolysis at 45 min, 256 μg/mL (Hemolytic assay; [1]): 2.9%
CCCCCCCC(=O)N[C@@H](Cc1c[nH]c2ccccc12)C(=O)N[C@@H](CCCCN)C(=O)N[C@@H](CCCCN)C(=O)N[C@@H](CC(C)C)C(=O)N[C@@H](CCCCN)C(=O)N[C@@H](CCCCN)C(=O)N[C@@H](CC(C)C)C(=O)N[C@@H](CC(C)C)C(=O)N[C@@H](CCCCN)C(=O)N[C@@H](CCCCN)C(=O)N[C@@H](CC(C)C)C(N)=O [pepD3O] (Octanoyl-WKKLKKLLKKL-NH2)	8 µg/mL (≈ 5.16 µM)	86	–
CCCCCC(=O)N[C@@H](Cc1c[nH]c2ccccc12)C(=O)N[C@@H](CCCCN)C(=O)N[C@@H](CCCCN)C(=O)N[C@@H](CC(C)C)C(=O)N[C@@H](CCCCN)C(=O)N[C@@H](CCCCN)C(=O)N[C@@H](CC(C)C)C(=O)N[C@@H](CC(C)C)C(=O)N[C@@H](CCCCN)C(=O)N[C@@H](CCCCN)C(=O)N[C@@H](CC(C)C)C(N)=O [pepD3H] (Hexanoyl-WKKLKKLLKKL-NH2)	8 µg/mL (≈ 5.25 µM)	54.1	–
Ac-WKKLKKLLKKLKKL-NH2 [pepD2]	8/8 μg/mL	–	HEK293 IC50 (HEK293 cells; 1 h): 29.1 µg/mL; HEK293 IC50 (HEK293 cells; 24 h): 37.3 µg/mL; MIC A. baumannii 17978 (A. baumannii ATCC 17978; MHB, 20 h, 5 × 10^5 CFU/mL): 8 µg/mL; MBC A. baumannii 17978 (A. baumannii ATCC 17978; spotted on MHA plate, 24 h): 8 µg/mL; half-life at 0.6 mg/mL (in vitro; rat, plasma): 1380 min; hemolysis at 45 min, 256 μg/mL (Hemolytic assay; [1]): 9.6%
